The source made the active and inactive calls. No cut-off for these calls is given here.
Columns and labels:
[1] = biological target: Transcription intermediary factor 1-alpha (Homo sapiens) (UniProt O15164); assay: Binding affinity to human His6-tagged TIF-1 (G896 to E1014 residues) expressed in Escherichia coli BL21(DE3) assessed as change in melting temperature at 200 uM after 30 mins by SYPRO orange dye based fluorescence assay
[2] = tested on: LNCaP; assay: Antiproliferative activity against human LNCAP cells after 72 hrs by Cell-Titer Glo assay; type: functional, cell-based
[3] = biological target: T1, Transcription initiation factor TFIID subunit 1 (Homo sapiens, UniProt P21675); assay: Inhibition of biotinylated-H4KAc4 binding to human His6-tagged TAF-1 (R1377 to D1503 residues) expressed in Escherichia coli BL21(DE3) after 2.5 hrs by luminescence-based AlphaScreen assay
[4] = biological target: T2, Bromodomain-containing protein 4 (Homo sapiens, UniProt O60885); assay: Binding affinity to human His6-tagged BRD4 bromodomain-1 (N44 to E168 residues) expressed in Escherichia coli BL21(DE3) assessed as change in melting temperature at 200 uM after 30 mins by SYPRO orange dye based fluorescence assay
[5] = biological target: Bromodomain-containing protein 9 (Homo sapiens) (UniProt Q9H8M2); assay: Binding affinity to human His6-tagged BRD9 (L14 to Q134 residues) expressed in Escherichia coli BL21(DE3) assessed as change in melting temperature at 200 uM after 30 mins by SYPRO orange dye based fluorescence assay
[6] = biological target: T3, Bromodomain-containing protein 9 (Homo sapiens, UniProt Q9H8M2); assay: Inhibition of biotinylated-H4KAc4 binding to human His6-tagged BRD9 (L14 to Q134 residues) expressed in Escherichia coli BL21(DE3) after 2.5 hrs by luminescence-based AlphaScreen assay
T3 sequence (Q9H8M2 whole entry): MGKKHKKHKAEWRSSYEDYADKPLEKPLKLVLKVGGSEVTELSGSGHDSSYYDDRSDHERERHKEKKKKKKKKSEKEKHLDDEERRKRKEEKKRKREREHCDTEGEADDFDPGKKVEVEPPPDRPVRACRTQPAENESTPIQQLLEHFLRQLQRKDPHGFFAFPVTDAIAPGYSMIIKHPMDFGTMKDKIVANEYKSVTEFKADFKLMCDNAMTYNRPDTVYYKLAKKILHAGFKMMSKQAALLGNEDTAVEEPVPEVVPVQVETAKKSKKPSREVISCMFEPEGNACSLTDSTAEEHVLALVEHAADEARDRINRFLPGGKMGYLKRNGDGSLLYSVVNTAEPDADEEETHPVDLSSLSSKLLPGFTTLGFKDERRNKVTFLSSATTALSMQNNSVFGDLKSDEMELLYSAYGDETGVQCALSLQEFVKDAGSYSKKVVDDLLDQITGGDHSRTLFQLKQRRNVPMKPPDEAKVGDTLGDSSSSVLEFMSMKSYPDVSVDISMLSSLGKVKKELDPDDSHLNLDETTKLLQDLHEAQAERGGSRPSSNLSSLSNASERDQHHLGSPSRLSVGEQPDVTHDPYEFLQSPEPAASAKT

[7] = tested on: CWR22R
Description: (§1) Antiproliferative activity against human 22Rv1 cells after 72 hrs by Cell-Titer Glo assay

[8] = biological target: T4, Histone acetyltransferase KAT2B (Homo sapiens, UniProt Q92831); assay: Inhibition of biotinylated-H4KAc4 binding to human His6-tagged PCAF (G715 to D831 residues) expressed in Escherichia coli BL21(DE3) after 2.5 hrs by luminescence-based AlphaScreen assay
[9] = biological target: T5, Histone acetyltransferase p300 (Homo sapiens, UniProt Q09472); assay: Binding affinity to human His6-tagged EP300 (A1040 to G1161 residues) expressed in Escherichia coli BL21(DE3) assessed as change in melting temperature at 200 uM after 30 mins by SYPRO orange dye based fluorescence assay
T5 sequence (Q09472 whole entry, the tested form may be a part): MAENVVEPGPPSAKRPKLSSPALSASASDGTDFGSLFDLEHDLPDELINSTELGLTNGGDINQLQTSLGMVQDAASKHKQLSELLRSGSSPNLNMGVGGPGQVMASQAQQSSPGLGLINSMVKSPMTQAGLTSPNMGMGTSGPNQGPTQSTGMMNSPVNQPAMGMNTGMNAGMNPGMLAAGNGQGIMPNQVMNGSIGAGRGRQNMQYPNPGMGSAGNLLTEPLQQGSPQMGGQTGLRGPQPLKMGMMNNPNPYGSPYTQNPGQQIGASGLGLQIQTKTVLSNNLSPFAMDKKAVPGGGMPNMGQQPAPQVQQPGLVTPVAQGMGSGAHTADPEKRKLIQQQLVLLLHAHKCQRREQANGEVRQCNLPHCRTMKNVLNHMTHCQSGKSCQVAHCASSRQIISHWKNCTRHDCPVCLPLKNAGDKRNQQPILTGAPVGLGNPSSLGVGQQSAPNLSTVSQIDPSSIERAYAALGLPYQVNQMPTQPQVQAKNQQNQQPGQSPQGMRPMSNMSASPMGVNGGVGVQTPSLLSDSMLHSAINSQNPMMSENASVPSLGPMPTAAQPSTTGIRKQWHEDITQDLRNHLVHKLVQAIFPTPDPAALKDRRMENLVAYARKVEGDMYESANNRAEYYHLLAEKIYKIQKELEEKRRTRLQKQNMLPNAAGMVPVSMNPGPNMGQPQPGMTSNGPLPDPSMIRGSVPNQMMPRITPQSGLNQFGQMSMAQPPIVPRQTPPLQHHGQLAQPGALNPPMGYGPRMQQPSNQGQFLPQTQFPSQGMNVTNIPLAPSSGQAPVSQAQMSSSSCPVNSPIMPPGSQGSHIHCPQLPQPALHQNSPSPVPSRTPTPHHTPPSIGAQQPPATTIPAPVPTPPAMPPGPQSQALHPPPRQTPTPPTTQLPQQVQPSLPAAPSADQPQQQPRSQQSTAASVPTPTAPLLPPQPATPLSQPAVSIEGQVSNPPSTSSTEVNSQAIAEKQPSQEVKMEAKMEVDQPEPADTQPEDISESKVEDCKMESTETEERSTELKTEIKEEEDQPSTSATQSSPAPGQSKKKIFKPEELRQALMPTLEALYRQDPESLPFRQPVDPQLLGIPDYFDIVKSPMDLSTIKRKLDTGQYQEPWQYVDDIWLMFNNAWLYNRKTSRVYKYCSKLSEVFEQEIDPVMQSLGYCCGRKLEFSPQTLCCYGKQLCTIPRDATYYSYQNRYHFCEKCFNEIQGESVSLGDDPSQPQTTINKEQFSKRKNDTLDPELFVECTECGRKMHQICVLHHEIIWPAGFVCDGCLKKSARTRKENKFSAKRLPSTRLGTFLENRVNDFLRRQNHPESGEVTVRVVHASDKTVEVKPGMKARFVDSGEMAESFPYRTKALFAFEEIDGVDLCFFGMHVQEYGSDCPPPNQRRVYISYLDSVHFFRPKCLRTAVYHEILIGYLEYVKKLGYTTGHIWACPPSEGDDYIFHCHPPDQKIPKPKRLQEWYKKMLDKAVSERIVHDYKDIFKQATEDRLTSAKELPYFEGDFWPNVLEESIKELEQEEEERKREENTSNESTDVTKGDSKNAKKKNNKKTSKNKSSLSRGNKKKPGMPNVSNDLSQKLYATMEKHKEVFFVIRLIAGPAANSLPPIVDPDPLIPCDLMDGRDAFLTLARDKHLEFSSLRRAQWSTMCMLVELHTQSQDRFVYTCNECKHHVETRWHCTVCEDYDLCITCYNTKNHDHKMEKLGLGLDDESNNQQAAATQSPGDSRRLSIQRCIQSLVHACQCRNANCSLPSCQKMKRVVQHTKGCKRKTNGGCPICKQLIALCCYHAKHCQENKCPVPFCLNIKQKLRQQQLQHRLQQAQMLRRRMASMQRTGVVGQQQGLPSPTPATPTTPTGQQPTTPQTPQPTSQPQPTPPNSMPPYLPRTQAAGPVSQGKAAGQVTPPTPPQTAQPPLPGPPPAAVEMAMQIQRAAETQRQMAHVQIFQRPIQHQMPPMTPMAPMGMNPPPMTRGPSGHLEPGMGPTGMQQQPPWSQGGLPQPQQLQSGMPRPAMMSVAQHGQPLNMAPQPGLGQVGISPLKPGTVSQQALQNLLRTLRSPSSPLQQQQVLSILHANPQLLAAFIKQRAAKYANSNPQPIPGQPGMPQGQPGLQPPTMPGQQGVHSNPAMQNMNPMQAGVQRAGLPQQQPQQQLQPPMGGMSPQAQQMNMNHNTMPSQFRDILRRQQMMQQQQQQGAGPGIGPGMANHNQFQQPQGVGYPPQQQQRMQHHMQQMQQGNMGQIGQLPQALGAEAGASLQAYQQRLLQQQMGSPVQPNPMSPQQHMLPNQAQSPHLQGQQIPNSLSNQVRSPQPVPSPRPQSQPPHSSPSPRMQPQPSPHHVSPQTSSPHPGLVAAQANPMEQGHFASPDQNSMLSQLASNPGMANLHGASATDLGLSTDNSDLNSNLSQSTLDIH

[10] = tested on: LNCaP C4-2B; assay: Anticlonogenic activity against human C4-2B cells after 14 days by crystal violet staining based assay; type: functional, cell-based
[11] = biological target: T6, Bromodomain adjacent to zinc finger domain protein 2B (Homo sapiens, UniProt Q9UIF8); assay: Inhibition of biotinylated-H4KAc4 binding to human His6-tagged BAZ2B (S1858 to S1972 residues) expressed in Escherichia coli BL21(DE3) after 2.5 hrs by luminescence-based AlphaScreen assay
[12] = biological target: T5, Histone acetyltransferase p300; assay: Inhibition of biotinylated-H4KAc4 binding to human His6-tagged EP300 (A1040 to G1161 residues) expressed in Escherichia coli BL21(DE3) after 2.5 hrs by luminescence-based AlphaScreen assay
[13] = biological target: T7, CREB-binding protein (Homo sapiens, UniProt Q92793); assay: Binding affinity to human His6-tagged CBP (R1081 to G1197 residues) expressed in Escherichia coli BL21(DE3) assessed as change in melting temperature at 200 uM after 30 mins by SYPRO orange dye based fluorescence assay
[14] = tested on: CWR22R; assay: Anticlonogenic activity against human 22Rv1 cells after 14 days by crystal violet staining based assay; type: functional, cell-based
[15] = biological target: T4, Histone acetyltransferase KAT2B; assay: Binding affinity to human His6-tagged PCAF (G715 to D831 residues) expressed in Escherichia coli BL21(DE3) assessed as change in melting temperature at 200 uM after 30 mins by SYPRO orange dye based fluorescence assay
[16] = biological target: T8, Transcription intermediary factor 1-alpha (Homo sapiens, UniProt O15164); assay: Inhibition of biotinylated-H4KAc4 binding to human His6-tagged TIF-1 (G896 to E1014 residues) expressed in Escherichia coli BL21(DE3) after 2.5 hrs by luminescence-based AlphaScreen assay
T8 sequence (O15164 whole entry): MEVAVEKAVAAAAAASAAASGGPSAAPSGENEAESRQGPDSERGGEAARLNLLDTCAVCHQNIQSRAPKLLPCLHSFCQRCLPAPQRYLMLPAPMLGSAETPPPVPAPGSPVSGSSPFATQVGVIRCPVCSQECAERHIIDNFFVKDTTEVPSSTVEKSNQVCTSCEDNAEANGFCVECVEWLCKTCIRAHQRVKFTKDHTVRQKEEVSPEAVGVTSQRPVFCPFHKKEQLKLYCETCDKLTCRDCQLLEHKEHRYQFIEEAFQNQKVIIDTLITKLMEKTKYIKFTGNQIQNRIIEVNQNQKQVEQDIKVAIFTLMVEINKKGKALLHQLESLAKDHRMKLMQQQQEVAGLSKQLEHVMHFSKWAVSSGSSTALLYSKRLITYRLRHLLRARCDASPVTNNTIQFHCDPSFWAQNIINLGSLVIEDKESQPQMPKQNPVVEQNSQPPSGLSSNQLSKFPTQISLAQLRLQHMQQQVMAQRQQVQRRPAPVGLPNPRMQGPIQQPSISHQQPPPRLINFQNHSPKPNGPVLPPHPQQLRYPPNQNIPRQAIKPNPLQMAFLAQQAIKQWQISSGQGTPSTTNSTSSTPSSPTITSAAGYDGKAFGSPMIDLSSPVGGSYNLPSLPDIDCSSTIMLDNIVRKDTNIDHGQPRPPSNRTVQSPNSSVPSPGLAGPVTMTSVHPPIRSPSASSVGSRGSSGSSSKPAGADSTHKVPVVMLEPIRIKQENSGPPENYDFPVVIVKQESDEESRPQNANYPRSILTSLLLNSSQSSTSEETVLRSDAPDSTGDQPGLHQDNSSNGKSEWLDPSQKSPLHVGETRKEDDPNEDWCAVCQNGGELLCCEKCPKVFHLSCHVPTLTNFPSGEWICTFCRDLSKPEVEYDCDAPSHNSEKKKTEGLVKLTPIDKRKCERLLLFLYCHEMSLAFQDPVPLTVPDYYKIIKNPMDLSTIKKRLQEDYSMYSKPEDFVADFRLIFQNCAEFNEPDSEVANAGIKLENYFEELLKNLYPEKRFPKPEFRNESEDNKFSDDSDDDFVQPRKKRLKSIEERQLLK

[17] = biological target: T2, Bromodomain-containing protein 4; assay: Inhibition of biotinylated-H4KAc4 binding to human His6-tagged BRD4 bromodomain-1 (N44 to E168 residues) expressed in Escherichia coli BL21(DE3) after 2.5 hrs by luminescence-based AlphaScreen assay
[18] = biological target: T1, Transcription initiation factor TFIID subunit 1; assay: Binding affinity to human His6-tagged TAF-1 (R1377 to D1503 residues) expressed in Escherichia coli BL21(DE3) assessed as change in melting temperature at 200 uM after 30 mins by SYPRO orange dye based fluorescence assay
[19] = biological target: T7, CREB-binding protein; assay: Inhibition of biotinylated-H4KAc4 binding to human His6-tagged CBP (R1081 to G1197 residues) expressed in Escherichia coli BL21(DE3) after 2.5 hrs by luminescence-based AlphaScreen assay
Target sequence in this assay (Q92793 whole entry, the tested form may be a part): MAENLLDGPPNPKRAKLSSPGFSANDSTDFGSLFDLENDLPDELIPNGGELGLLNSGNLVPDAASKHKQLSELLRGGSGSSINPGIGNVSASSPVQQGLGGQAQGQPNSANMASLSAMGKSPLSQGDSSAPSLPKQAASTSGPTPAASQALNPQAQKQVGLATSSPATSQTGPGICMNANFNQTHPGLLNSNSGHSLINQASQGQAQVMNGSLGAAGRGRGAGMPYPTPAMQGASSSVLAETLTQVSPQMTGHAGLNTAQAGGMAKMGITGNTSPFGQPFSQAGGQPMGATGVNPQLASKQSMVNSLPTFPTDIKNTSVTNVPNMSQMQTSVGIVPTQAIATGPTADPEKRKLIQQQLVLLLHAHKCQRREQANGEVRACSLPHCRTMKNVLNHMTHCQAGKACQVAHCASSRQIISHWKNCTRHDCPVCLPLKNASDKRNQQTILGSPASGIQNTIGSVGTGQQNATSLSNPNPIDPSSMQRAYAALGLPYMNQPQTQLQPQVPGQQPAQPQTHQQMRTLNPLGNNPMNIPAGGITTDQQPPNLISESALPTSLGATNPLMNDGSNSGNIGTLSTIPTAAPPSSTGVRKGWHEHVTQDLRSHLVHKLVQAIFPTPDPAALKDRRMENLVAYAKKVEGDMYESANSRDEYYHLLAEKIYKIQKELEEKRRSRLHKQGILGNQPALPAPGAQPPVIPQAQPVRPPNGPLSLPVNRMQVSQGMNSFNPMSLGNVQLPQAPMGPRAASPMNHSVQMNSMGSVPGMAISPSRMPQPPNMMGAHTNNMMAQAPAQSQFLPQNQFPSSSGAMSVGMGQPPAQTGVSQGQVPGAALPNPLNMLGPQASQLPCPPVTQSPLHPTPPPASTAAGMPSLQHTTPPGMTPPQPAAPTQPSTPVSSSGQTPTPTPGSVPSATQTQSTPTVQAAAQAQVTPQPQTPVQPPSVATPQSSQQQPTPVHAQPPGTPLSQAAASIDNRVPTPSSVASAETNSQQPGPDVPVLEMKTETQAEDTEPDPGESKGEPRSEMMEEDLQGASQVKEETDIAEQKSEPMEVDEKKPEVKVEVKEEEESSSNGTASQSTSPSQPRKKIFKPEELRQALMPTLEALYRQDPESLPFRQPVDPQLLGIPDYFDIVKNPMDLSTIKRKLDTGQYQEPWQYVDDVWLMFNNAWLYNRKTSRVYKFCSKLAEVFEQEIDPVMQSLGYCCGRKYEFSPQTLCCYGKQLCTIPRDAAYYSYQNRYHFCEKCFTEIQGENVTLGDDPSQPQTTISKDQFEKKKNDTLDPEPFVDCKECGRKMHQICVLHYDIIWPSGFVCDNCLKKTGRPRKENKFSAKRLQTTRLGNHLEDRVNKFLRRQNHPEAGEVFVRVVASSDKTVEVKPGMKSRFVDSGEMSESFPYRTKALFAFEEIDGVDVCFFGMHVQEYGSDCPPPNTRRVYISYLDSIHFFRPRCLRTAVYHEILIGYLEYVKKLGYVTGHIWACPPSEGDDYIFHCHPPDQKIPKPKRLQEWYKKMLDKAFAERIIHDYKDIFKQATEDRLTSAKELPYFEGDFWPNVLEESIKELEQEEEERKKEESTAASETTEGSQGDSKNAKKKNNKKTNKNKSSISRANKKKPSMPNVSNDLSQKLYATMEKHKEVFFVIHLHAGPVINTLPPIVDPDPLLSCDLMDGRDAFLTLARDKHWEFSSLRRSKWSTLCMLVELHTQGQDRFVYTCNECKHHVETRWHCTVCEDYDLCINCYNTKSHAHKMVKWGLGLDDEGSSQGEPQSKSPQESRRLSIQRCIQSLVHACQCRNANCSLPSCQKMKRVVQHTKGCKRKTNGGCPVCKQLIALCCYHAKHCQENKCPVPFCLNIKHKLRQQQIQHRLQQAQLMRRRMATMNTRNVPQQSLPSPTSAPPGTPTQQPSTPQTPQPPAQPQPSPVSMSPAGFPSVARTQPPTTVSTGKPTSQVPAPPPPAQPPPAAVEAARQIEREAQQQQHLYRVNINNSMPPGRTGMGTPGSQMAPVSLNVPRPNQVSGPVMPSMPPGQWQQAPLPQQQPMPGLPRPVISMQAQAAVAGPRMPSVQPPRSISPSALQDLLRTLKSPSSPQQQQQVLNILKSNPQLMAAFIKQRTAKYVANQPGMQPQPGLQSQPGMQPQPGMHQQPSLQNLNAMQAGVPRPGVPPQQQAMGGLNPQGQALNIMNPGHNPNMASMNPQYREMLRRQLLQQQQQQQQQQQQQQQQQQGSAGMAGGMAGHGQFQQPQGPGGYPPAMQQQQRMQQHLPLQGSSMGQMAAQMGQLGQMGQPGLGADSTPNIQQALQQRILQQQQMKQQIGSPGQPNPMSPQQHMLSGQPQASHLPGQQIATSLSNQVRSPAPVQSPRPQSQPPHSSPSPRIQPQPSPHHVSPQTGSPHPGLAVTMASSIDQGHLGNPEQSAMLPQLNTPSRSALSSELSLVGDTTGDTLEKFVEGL

[20] = biological target: T6, Bromodomain adjacent to zinc finger domain protein 2B; assay: Binding affinity to human His6-tagged BAZ2B (S1858 to S1972 residues) expressed in Escherichia coli BL21(DE3) assessed as change in melting temperature at 200 uM after 30 mins by SYPRO orange dye based fluorescence assay
[21] = biological target: T9, CREB-binding protein/Histone acetyltransferase p300 (Homo sapiens) (UniProt Q09472+Q92793); assay: Inhibition of EP300/CBP in human LNCAP cells assessed as downregulation of AR-regulated TMPRSS2 mRNA expression at 1 to 5 uM after 48 hrs by qRT-PCR method; type: cell-based
T9 sequence (Q09472 whole entry, looked up): as the sequence (Q09472 whole entry, the tested form may be a part) above
T9 sequence (Q92793 whole entry, looked up): as the sequence (Q92793 whole entry, the tested form may be a part) above

[22] = biological target: T9, CREB-binding protein/Histone acetyltransferase p300 (Homo sapiens); assay: Inhibition of EP300/CBP in human LNCAP cells assessed as downregulation of Myc mRNA expression at 1 to 5 uM after 48 hrs by qRT-PCR method; type: cell-based
[23] = tested on: CWR22R; assay: cells; settings: Homo sapiens, 22Rv1, 72 h
Description: as §1

[24] = biological target: T9, CREB-binding protein/Histone acetyltransferase p300 (Homo sapiens); assay: Inhibition of EP300/CBP in human LNCAP cells transfected with PSA-Luc reporter plasmid after 24 hrs by luciferase reporter gene assay; type: cell-based
[25] = biological target: T9, CREB-binding protein/Histone acetyltransferase p300 (Homo sapiens); assay: Inhibition of EP300/CBP in human LNCAP cells assessed as downregulation of full length AR mRNA expression at 1 to 5 uM after 48 hrs by qRT-PCR method; type: cell-based
[26] = tested on: MCF7; assay: Antiproliferative activity against human MCF7 cells after 96 hrs by Cell-Titer Glo assay; type: functional, cell-based; settings: MCF7, 96 h
[27] = tested on: CWR22R; assay: Potency index, ratio of enzalutamide IC50 to compound IC50 for antiproliferative activity against human 22Rv1 cells; type: functional
[28] = biological target: T9, CREB-binding protein/Histone acetyltransferase p300 (Homo sapiens); assay: Inhibition of EP300/CBP in human LNCAP cells assessed as downregulation of AR-regulated KLK2 mRNA expression at 1 to 5 uM after 48 hrs by qRT-PCR method; type: cell-based
[29] = tested on: L02; assay: Antiproliferative activity against human HL7702 cells after 96 hrs by Cell-Titer Glo assay; type: cell-based; settings: L02, 96 h
[30] = tested on: MDA-MB-231; assay: Antiproliferative activity against human MDA-MB-231 cells after 96 hrs by Cell-Titer Glo assay; type: functional, cell-based; settings: MDA-MB-231, 96 h
[31] = tested on: LNCaP C4-2B; assay: Anticlonogenic activity against human C4-2B cells at 4 uM after 14 days by crystal violet staining based assay relative to control; type: functional
[32] = biological target: T9, CREB-binding protein/Histone acetyltransferase p300 (Homo sapiens); assay: Inhibition of EP300/CBP in human LNCAP cells assessed as downregulation of AR-regulated PSA mRNA expression at 1 to 5 uM after 48 hrs by qRT-PCR method; type: cell-based
[33] = tested on: PC-3; assay: Antiproliferative activity against human PC3 cells after 96 hrs by Cell-Titer Glo assay; type: functional, cell-based; settings: PC-3, 96 h
[34] = tested on: CWR22R; assay: Anticlonogenic activity against human 22Rv1 cells at 4 uM after 14 days by crystal violet staining based assay relative to control; type: functional
[35] = tested on: Hs-578T; assay: Antiproliferative activity against human Hs 578T cells after 72 hrs by Cell-Titer Glo assay; type: functional, cell-based
[36] = tested on: LNCaP; assay: Potency index, ratio of enzalutamide IC50 to compound IC50 for antiproliferative activity against human LNCAP cells; type: functional
[37] = tested on: HFL1; assay: Antiproliferative activity against HFL1 cells after 72 hrs by Cell-Titer Glo assay; type: cell-based; settings: Homo sapiens, HFL1, 72 h
[38] = Homo sapiens, LNCaP, 72 h, read-out: IC50

## COc1ccc2c(c1)c(C(=O)Nc1cc(C(=O)O)cc(-c3cnn(C)c3)c1)cn2C(C)=O
[1]
  ΔTm: -0.3 °C
[2]; lncap
  IC50: Not Active
[3]
  IC50: > 20 µM
[4]
  ΔTm: 1.1 °C
[5]
  ΔTm: -0.9 °C
[6]
  IC50: > 20 µM
[7]
  IC50: Not Active
[8]
  IC50: > 20 µM
[9]
  ΔTm: 5.7 °C
[10]
  Activity: inactive
[11]
  IC50: > 20 µM
[12]
  IC50: 0.51 µM
[13]
  ΔTm: 5.7 °C
[14]
  Activity: inactive
[15]
  ΔTm: -1.5 °C
[16]
  IC50: > 20 µM
[17]
  IC50: > 20 µM
[18]
  ΔTm: 0.9 °C
[19]
  IC50: 0.16 µM
[20]
  ΔTm: 1.5 °C

## COc1ccc2c(c1)c(C(=O)Nc1cc(C(=O)OC(C)(C)C)cc(-c3cnn(C)c3)c1F)cn2C(C)=O
[21]
  inhibition: Active
[22]
  inhibition: Active
[2]; [38]
  IC50: 2.01 µM
[23]
  IC50: 2.13 µM
[24]
  inhibition: Dose-dependent effect
[25]
  inhibition: Active
[26]
  IC50: 7.46 µM
[10]
  Activity: Dose-dependent effect
[27]
  Ratio IC50: 17
[28]
  inhibition: Active
[29]
  IC50: 40 µM
[14]
  Activity: Dose-dependent effect
[30]
  IC50: 36 µM
[31]
  Activity: <10%
[32]
  inhibition: Active
[33]
  IC50: 25.8 µM
[34]
  Activity: <10%
[35]
  IC50: 15.1 µM
[36]
  Ratio IC50: 17
[37]
  IC50: > 100 µM

## COc1ccc2c(c1)c(C(=O)Nc1cc(C(=O)OC(C)(C)C)cc(-c3cnn(C)c3)c1)cn2C(C)=O
[2]; [38]
  IC50: 1.28 µM
[23]
  IC50: 2.22 µM
[10]
  Activity: Dose-dependent effect
[27]
  Ratio IC50: 17
[14]
  Activity: Dose-dependent effect
[31]
  Activity: <10%
[34]
  Activity: <10%
[36]
  Ratio IC50: 17

— ChEMBL document CHEMBL4145544, “Discovery and optimization of 1-(1H-indol-1-yl)ethanone derivatives as CBP/EP300 bromodomain inhibitors for the treatment of castration-resistant prostate cancer” (Eur J Med Chem, 2018)
